{"source": "patent US8952024B2", "about": "“Herbicidal pyrimidone derivatives” (E I du Pont de Nemours and Company, priority 2009, dated 2015)", "format_in_all_cases": "in vivo", "key": {"[1]": {"system": "barnyardgrass (Echinochloa crus-galli)", "assay": "Test A pre-/postemergence plant response", "procedure,_shortened": "(§1)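 Greenhouse trial, ~10 days. Soil (loam/sand) sprayed preemergence after seeding; emerged plants (1–2 leaf, 2–10 cm) sprayed postemergence in parallel. Response = visual injury vs untreated control, 0–100.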"}, "corn (Zea mays)": {"system": "corn (Zea mays)", "assay": "Test A pre-/postemergence plant response", "procedure,_shortened": "as §1"}, "[2]": {"system": "giant foxtail (Setaria faberii)", "assay": "Test A pre-/postemergence plant response", "procedure,_shortened": "as §1"}, "[3]": {"system": "large crabgrass (Digitaria sanguinalis)", "assay": "Test A pre-/postemergence plant response", "procedure,_shortened": "as §1"}, "[4]": {"system": "morningglory (Ipomoea spp.)", "assay": "Test A pre-/postemergence plant response", "procedure,_shortened": "as §1"}, "[5]": {"system": "pigweed (Amaranthus retroflexus)", "assay": "Test A pre-/postemergence plant response", "procedure,_shortened": "as §1"}, "[6]": {"system": "velvetleaf (Abutilon theophrasti)", "assay": "Test A pre-/postemergence plant response", "procedure,_shortened": "as §1"}, "[7]": {"system": "wheat (Triticum aestivum)", "assay": "Test A pre-/postemergence plant response", "procedure,_shortened": "as §1"}, "[8]": {"system": "winter barley (Hordeum vulgare)", "assay": "Test B postemergence plant response", "settings": "Postemergence; for Barley plant response rating: 250 g ai/ha, scale 0 to 100", "procedure,_shortened": "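Plants grown in peat/vermiculite medium were sprayed postemergence at 2–18 cm height (1- to 4-leaf stage). After 13–15 days in the greenhouse, response was rated visually against untreated controls on a 0–100 scale (0 no effect, 100 complete control).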"}, "[9]": {"system": "barnyardgrass (Echinochloa crus-galli)", "assay": "Test B flooded paddy test", "settings": "for Plant response rating, Flood, Barnyardgrass: 250 g ai/ha, flooded paddy test, visual rating on 0 to 100 scale (0 no effect, 100 complete control) after 13 to 15 days; for Plant response rating, Barnyardgrass: Flood (flooded paddy test), 62 g ai/ha, 13 to 15 days", "procedure,_shortened": "(§2)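 Rice, umbrella sedge, ducksalad and barnyardgrass were grown to the 2-leaf stage, flooded to 3 cm, and compound was applied directly to the paddy water, with that depth kept throughout. After 13 to 15 days in the greenhouse, plants were visually rated against controls on a 0 (no effect) to 100 (complete control) scale.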"}, "[10]": {"system": "ducksalad (Heteranthera limosa)", "assay": "Test B flooded paddy test", "settings": "for Plant response rating, Flood, Ducksalad: 250 g ai/ha, flooded paddy test, visual rating on 0 to 100 scale (0 no effect, 100 complete control) after 13 to 15 days; for Plant response rating, Ducksalad: Flood (flooded paddy test), 62 g ai/ha, 13 to 15 days", "procedure,_shortened": "as §2"}, "rice (Oryza sativa)": {"system": "rice (Oryza sativa)", "assay": "Test B flooded paddy test", "settings": "for Plant response rating, Flood, Rice: 250 g ai/ha, flooded paddy test, visual rating on 0 to 100 scale (0 no effect, 100 complete control) after 13 to 15 days; for Plant response rating, Rice: Flood (flooded paddy test), 62 g ai/ha, 13 to 15 days", "procedure,_shortened": "as §2"}, "[11]": {"system": "umbrella sedge (Cyperus difformis)", "assay": "Test B flooded paddy test", "settings": "for Plant response rating, Flood, Sedge, Umbrella: 250 g ai/ha, flooded paddy test, visual rating on 0 to 100 scale (0 no effect, 100 complete control) after 13 to 15 days; for Plant response rating, Sedge, Umbrella: Flood (flooded paddy test), 62 g ai/ha, 13 to 15 days", "procedure,_shortened": "as §2"}, "[12]": {"settings": "Postemergence, 125 g ai/ha, visual injury, 0 to 100 scale (0 no effect, 100 complete control), approx. ten days"}, "[13]": {"settings": "Postemergence, 500 g ai/ha, 0 to 100 scale, 0 = no effect, 100 = complete control, approx. ten days"}, "[14]": {"settings": "Preemergence, 125 g ai/ha, 0 to 100 scale, 0 = no effect, 100 = complete control"}, "[15]": {"settings": "Preemergence, 500 g ai/ha, visual injury, 0 to 100 scale (0 no effect, 100 complete control), approx. ten days"}, "[16]": {"settings": "31 g ai/ha, scale 0 to 100 (0 no effect, 100 complete control)"}, "[17]": {"settings": "62 g ai/ha, scale 0 (no effect) to 100 (complete control), 13 to 15 days"}, "[18]": {"settings": "125 g ai/ha, visual rating after 13 to 15 days, scale 0 (no effect) to 100 (complete control)"}, "[19]": {"settings": "scale of 0 to 100 where 0 is no effect and 100 is complete control"}, "[20]": {"settings": "scale 0 to 100, 0 is no effect, 100 is complete control"}}}
{"smiles": "Cc1cc(F)ccc1-n1c(-c2ccccc2)ncc(C(=O)C2=C(O)CCCC2=O)c1=O", "note": "[Compound 48]", "values": [{"measurement": "Barnyardgrass plant response rating", "setting": "[1]; [12]", "result": 80}, {"measurement": "Plant response rating, Barnyardgrass", "setting": "[1]; [13]", "result": 90}, {"measurement": "Plant response rating, Barnyardgrass", "setting": "[1]; [14]", "result": 20}, {"measurement": "Plant response rating, Barnyardgrass", "setting": "[1]; [15]", "result": 100}, {"measurement": "Corn plant response rating", "setting": "corn (Zea mays); [12]", "result": 0}, {"measurement": "Plant response rating, Corn", "setting": "corn (Zea mays); [13]", "result": 30}, {"measurement": "Plant response rating, Corn", "setting": "corn (Zea mays); [14]", "result": 0}, {"measurement": "Plant response rating, Corn", "setting": "corn (Zea mays); [15]", "result": 0}, {"measurement": "Foxtail, Giant plant response rating", "setting": "[2]; [12]", "result": 90}, {"measurement": "Plant response rating, Foxtail, Giant", "setting": "[2]; [13]", "result": 100}, {"measurement": "Plant response rating, Foxtail, Giant", "setting": "[2]; [14]", "result": 70}, {"measurement": "Plant response rating, Foxtail, Giant", "setting": "[2]; [15]", "result": 90}, {"measurement": "Crabgrass, Large plant response rating", "setting": "[3]; [12]", "result": 90}, {"measurement": "Plant response rating, Crabgrass, Large", "setting": "[3]; [13]", "result": 100}, {"measurement": "Plant response rating, Crabgrass, Large", "setting": "[3]; [14]", "result": 90}, {"measurement": "Plant response rating, Crabgrass, Large", "setting": "[3]; [15]", "result": 100}, {"measurement": "Morningglory plant response rating", "setting": "[4]; [12]", "result": 90}, {"measurement": "Plant response rating, Morningglory", "setting": "[4]; [13]", "result": 100}, {"measurement": "Plant response rating, Morningglory", "setting": "[4]; [14]", "result": 40}, {"measurement": "Plant response rating, Morningglory", "setting": "[4]; [15]", "result": 80}, {"measurement": "Pigweed plant response rating", "setting": "[5]; [12]", "result": 100}, {"measurement": "Plant response rating, Pigweed", "setting": "[5]; [13]", "result": 100}, {"measurement": "Plant response rating, Pigweed", "setting": "[5]; [14]", "result": 90}, {"measurement": "Plant response rating, Pigweed", "setting": "[5]; [15]", "result": 100}, {"measurement": "Velvetleaf plant response rating", "setting": "[6]; [12]", "result": 100}, {"measurement": "Plant response rating, Velvetleaf", "setting": "[6]; [13]", "result": 100}, {"measurement": "Plant response rating, Velvetleaf", "setting": "[6]; [14]", "result": 80}, {"measurement": "Plant response rating, Velvetleaf", "setting": "[6]; [15]", "result": 100}, {"measurement": "Wheat plant response rating", "setting": "[7]; [12]", "result": 0}, {"measurement": "Plant response rating, Wheat", "setting": "[7]; [13]", "result": 20}, {"measurement": "Plant response rating, Wheat", "setting": "[7]; [14]", "result": 0}, {"measurement": "Plant response rating, Wheat", "setting": "[7]; [15]", "result": 0}, {"measurement": "Plant response rating, Barley", "setting": "[8]; [16]", "result": 5}, {"measurement": "Plant response rating, Barley", "setting": "[8]; [17]", "result": 5}, {"measurement": "Plant response rating, Barley", "setting": "[8]; [18]", "result": 10}, {"measurement": "Barley plant response rating", "setting": "[8]", "result": 10}, {"measurement": "Plant response rating, Flood, Barnyardgrass", "setting": "[9]", "result": 35}, {"measurement": "Plant response rating, Barnyardgrass", "setting": "[9]; [19]", "result": 0}, {"measurement": "Plant response rating, Flood, Ducksalad", "setting": "[10]", "result": 85}, {"measurement": "Plant response rating, Ducksalad", "setting": "[10]; [19]", "result": 0}, {"measurement": "Plant response rating, Flood, Rice", "setting": "rice (Oryza sativa)", "result": 65}, {"measurement": "Plant response rating, Rice", "setting": "rice (Oryza sativa); [19]", "result": 0}, {"measurement": "Plant response rating, Flood, Sedge, Umbrella", "setting": "[11]", "result": 75}, {"measurement": "Plant response rating, Sedge, Umbrella", "setting": "[11]; [19]", "result": 40}]}
{"smiles": "Cc1ccc(C)c(-n2c(-c3ccccc3)ncc(C(=O)C3=C(O)CCCC3=O)c2=O)c1", "note": "[Compound 29]", "values": [{"measurement": "Barnyardgrass plant response rating", "setting": "[1]; [12]", "result": 20}, {"measurement": "Plant response rating, Barnyardgrass", "setting": "[1]; [13]", "result": 90}, {"measurement": "Plant response rating, Barnyardgrass", "setting": "[1]; [14]", "result": 0}, {"measurement": "Plant response rating, Barnyardgrass", "setting": "[1]; [15]", "result": 100}, {"measurement": "Corn plant response rating", "setting": "corn (Zea mays); [12]", "result": 0}, {"measurement": "Plant response rating, Corn", "setting": "corn (Zea mays); [13]", "result": 10}, {"measurement": "Plant response rating, Corn", "setting": "corn (Zea mays); [14]", "result": 0}, {"measurement": "Plant response rating, Corn", "setting": "corn (Zea mays); [15]", "result": 0}, {"measurement": "Foxtail, Giant plant response rating", "setting": "[2]; [12]", "result": 70}, {"measurement": "Plant response rating, Foxtail, Giant", "setting": "[2]; [13]", "result": 90}, {"measurement": "Plant response rating, Foxtail, Giant", "setting": "[2]; [14]", "result": 30}, {"measurement": "Plant response rating, Foxtail, Giant", "setting": "[2]; [15]", "result": 100}, {"measurement": "Crabgrass, Large plant response rating", "setting": "[3]; [12]", "result": 70}, {"measurement": "Plant response rating, Crabgrass, Large", "setting": "[3]; [13]", "result": 90}, {"measurement": "Plant response rating, Crabgrass, Large", "setting": "[3]; [14]", "result": 20}, {"measurement": "Plant response rating, Crabgrass, Large", "setting": "[3]; [15]", "result": 100}, {"measurement": "Morningglory plant response rating", "setting": "[4]; [12]", "result": 60}, {"measurement": "Plant response rating, Morningglory", "setting": "[4]; [13]", "result": 90}, {"measurement": "Plant response rating, Morningglory", "setting": "[4]; [14]", "result": 40}, {"measurement": "Plant response rating, Morningglory", "setting": "[4]; [15]", "result": 80}, {"measurement": "Pigweed plant response rating", "setting": "[5]; [12]", "result": 80}, {"measurement": "Plant response rating, Pigweed", "setting": "[5]; [13]", "result": 100}, {"measurement": "Plant response rating, Pigweed", "setting": "[5]; [14]", "result": 50}, {"measurement": "Plant response rating, Pigweed", "setting": "[5]; [15]", "result": 100}, {"measurement": "Velvetleaf plant response rating", "setting": "[6]; [12]", "result": 100}, {"measurement": "Plant response rating, Velvetleaf", "setting": "[6]; [13]", "result": 100}, {"measurement": "Plant response rating, Velvetleaf", "setting": "[6]; [14]", "result": 20}, {"measurement": "Plant response rating, Velvetleaf", "setting": "[6]; [15]", "result": 100}, {"measurement": "Wheat plant response rating", "setting": "[7]; [12]", "result": 0}, {"measurement": "Plant response rating, Wheat", "setting": "[7]; [13]", "result": 0}, {"measurement": "Plant response rating, Wheat", "setting": "[7]; [14]", "result": 0}, {"measurement": "Plant response rating, Wheat", "setting": "[7]; [15]", "result": 0}, {"measurement": "Plant response rating, Barley", "setting": "[8]; [16]", "result": 0}, {"measurement": "Plant response rating, Barley", "setting": "[8]; [17]", "result": 0}, {"measurement": "Plant response rating, Barley", "setting": "[8]; [18]", "result": 0}, {"measurement": "Barley plant response rating", "setting": "[8]", "result": 0}, {"measurement": "Plant response rating, Flood, Barnyardgrass", "setting": "[9]", "result": 30}, {"measurement": "Plant response rating, Barnyardgrass", "setting": "[9]; [20]", "result": 0}, {"measurement": "Plant response rating, Flood, Ducksalad", "setting": "[10]", "result": 85}, {"measurement": "Plant response rating, Ducksalad", "setting": "[10]; [20]", "result": 70}, {"measurement": "Plant response rating, Flood, Rice", "setting": "rice (Oryza sativa)", "result": 0}, {"measurement": "Plant response rating, Rice", "setting": "rice (Oryza sativa); [20]", "result": 0}, {"measurement": "Plant response rating, Flood, Sedge, Umbrella", "setting": "[11]", "result": 80}, {"measurement": "Plant response rating, Sedge, Umbrella", "setting": "[11]; [20]", "result": 70}]}
